{"source": "patent US20190211397A1", "about": "“INHIBITORS OF GPR132 FOR USE IN PREVENTING AND/OR TREATING CHEMOTHERAPY-INDUCED NEUROPATHIC PAIN” (Fraunhofer-Gesellschaft zur Foerderung der angewandten …, priority 2016, published 2019)", "key": {"[1]": {"target": "T1, TRPM8 (Mus musculus, UniProt Q8R4D5)", "T1 construct": "endogenous in cells; host or cells: primary murine dorsal root ganglion (DRG) neurons", "T1 sequence (Q8R4D5 whole entry)": "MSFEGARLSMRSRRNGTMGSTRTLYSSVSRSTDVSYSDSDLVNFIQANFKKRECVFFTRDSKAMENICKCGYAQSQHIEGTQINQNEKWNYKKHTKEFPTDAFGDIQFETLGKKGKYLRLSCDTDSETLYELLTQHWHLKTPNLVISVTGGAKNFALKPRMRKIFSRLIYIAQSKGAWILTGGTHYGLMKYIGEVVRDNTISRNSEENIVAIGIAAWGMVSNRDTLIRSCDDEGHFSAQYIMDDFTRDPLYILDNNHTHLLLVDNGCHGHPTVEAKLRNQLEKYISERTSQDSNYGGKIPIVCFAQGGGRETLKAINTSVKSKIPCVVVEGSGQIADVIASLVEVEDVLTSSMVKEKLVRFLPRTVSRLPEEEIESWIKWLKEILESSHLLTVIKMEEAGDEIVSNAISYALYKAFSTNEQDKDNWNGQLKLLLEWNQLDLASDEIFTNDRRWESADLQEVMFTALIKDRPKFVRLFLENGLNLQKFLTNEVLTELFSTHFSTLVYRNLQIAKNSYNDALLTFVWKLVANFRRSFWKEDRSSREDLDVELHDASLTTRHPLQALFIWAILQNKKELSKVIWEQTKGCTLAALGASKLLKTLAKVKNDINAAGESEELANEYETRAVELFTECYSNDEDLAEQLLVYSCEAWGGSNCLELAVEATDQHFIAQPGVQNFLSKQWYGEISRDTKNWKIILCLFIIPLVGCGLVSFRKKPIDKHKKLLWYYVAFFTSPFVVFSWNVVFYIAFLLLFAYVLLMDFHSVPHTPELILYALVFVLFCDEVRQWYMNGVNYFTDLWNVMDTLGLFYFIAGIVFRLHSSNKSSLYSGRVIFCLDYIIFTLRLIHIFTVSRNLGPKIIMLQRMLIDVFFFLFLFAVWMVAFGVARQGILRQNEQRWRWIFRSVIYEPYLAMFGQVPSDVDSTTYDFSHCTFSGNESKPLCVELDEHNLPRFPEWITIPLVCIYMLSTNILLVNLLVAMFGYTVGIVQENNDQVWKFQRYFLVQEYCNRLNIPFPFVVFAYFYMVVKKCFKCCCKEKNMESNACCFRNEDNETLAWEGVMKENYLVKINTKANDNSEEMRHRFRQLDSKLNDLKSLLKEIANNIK", "experiment": "Calcium imaging of DRG neurons: TRPM8 sensitization (menthol)", "assay_type": "cell-based, mice", "conditions": "activated with menthol 100 μM", "procedure": "(§1) DRG primary cultures were prepared as described previously (Brenneis et al., 2011 b). Briefly, twenty to thirty murine dorsal roots ganglia (DRGs) were dissected from spinal segments and transferred directly into ice-cold Hanks' balanced salt solution with CaCI2 and MgCI2 (lnvitrogen, Carlsbad, Calif., USA). The DRGs were than incubated with Neurobasal Medium (lnvitrogen, Carlsbad, Calif., USA) containing 500 U/ml collagenase (Sigma, Deisenhofen, Germany) and 2.5 U/ml dispase II (Roche, Mannheim, Germany) for 75 mins at 37° C. After removal of the collagenase/dispase-solution cells were washed three times with medium containing 10% FCS, penicillin/streptomycin/gentamycin (lnvitrogen, Carlsbad, Calif., USA) and incubated in 0.05% trypsin for 10 min at 37° C. After two washing steps, the cells were mechanically dissociated with a 1 ml pipette and plated on Poly-L-lysine (Sigma) coated coverslips. […]\n(§2) Calcium-imaging experiments were performed with a Leica calcium-imaging setup, consisting of a Leica DMI 4000 b inverted microscope equipped with a DFC360 FX (CCD) camera, Fura-2 filters, and an N-Plan 10×/0.25 Ph1 objective (all from Leica), was used. […] For each experiment, an area with large cell numbers 24 h after preparation (see DRG primary cultures) was chosen and 40-110 cells were monitored simultaneously. […]"}, "[2]": {"tested_on": "TRPV1", "experiment": "Calcium imaging of DRG neurons: TRPV1 sensitization (two capsaicin stimuli, Δratio)", "assay_type": "cell-based, mice", "procedure": "DRG primary cultures were prepared as described previously (Brenneis et al., 2011 b). Briefly, twenty to thirty murine dorsal roots ganglia (DRGs) were dissected from spinal segments and transferred directly into ice-cold Hanks' balanced salt solution with CaCI2 and MgCI2 (lnvitrogen, Carlsbad, Calif., USA). The DRGs were than incubated with Neurobasal Medium (lnvitrogen, Carlsbad, Calif., USA) containing 500 U/ml collagenase (Sigma, Deisenhofen, Germany) and 2.5 U/ml dispase II (Roche, Mannheim, Germany) for 75 mins at 37° C. After removal of the collagenase/dispase-solution cells were washed three times with medium containing 10% FCS, penicillin/streptomycin/gentamycin (lnvitrogen, Carlsbad, Calif., USA) and incubated in 0.05% trypsin for 10 min at 37° C. After two washing steps, the cells were mechanically dissociated with a 1 ml pipette and plated on Poly-L-lysine (Sigma) coated coverslips. After incubation at 37° C. for 2 h, Neurobasal Medium containing glutamine (2 mm), penicillin (100 U/ml), streptomycin (100 μg/ml), B-27 and gentamicin (50 μg/ml) was added to the cells and incubated overnight. The neurons were used for Calcium imaging the next day.\nCalcium-imaging experiments were performed with a Leica calcium-imaging setup, consisting of a Leica DMI 4000 b inverted microscope equipped with a DFC360 FX (CCD) camera, Fura-2 filters, and an N-Plan 10×/0.25 Ph1 objective (all from Leica), was used. Images were taken every 2 s and were processed with the LAS AF-software (Leica). For each experiment, an area with large cell numbers 24 h after preparation (see DRG primary cultures) was chosen and 40-110 cells were monitored simultaneously. Cells were loaded with 5 μM fura-2-AM-ester (Biotium), incubated for 45-60 min at 37° C. and washed with ringer solution (145 mM NaCI, 1.25 mM CaCl2, 1 mM MgCl2, 5 mM KCI, 10 mM D-glucose, and 10 mM HEPES, adjusted to pH 7.3). Baseline measurements were performed with ringer solution at a flow rate of 1-2 ml/min at room temperature. For the activation of TRPV1 we used a solution of 200 nM capsaicin (Sigma), for TRPA1 activation 50 μM allyl isothiocyanate (AITC, Fluka Analytic) and for TRPM8 100 μM L-menthol (Sigma) dissolved in ringer solution. For TRP-channel sensitization, cells were incubated for 2 mins with different concentrations (50 nM-1000 nM) of (±) 9-HODE (Cayman) or (±) 13-HODE (Cayman) before the second stimulus took place. For control stimulations, the corresponding volume of DMSO (Sigma) was mixed in ringer solution and applied with the same flow rate. 10 μM of the PKA inhibitor H89 (Tocris) or 1 μM of the PKC inhibitor GF1 09203X (Tocris) was co-incubated with fura-2 for 45 mins. As positive control for PKA activation 40 iJM 8-bromo-cAMP (Cayman) and for PKC activation 500 nM bradykinin (Cayman) was used. At the end of each measurement, 50 mM KCl was applied to identify neurons."}, "[3]": {"target": "T2, G2A receptor (GPR132) (Homo sapiens, UniProt Q9UNW8)", "T2 sequence (Q9UNW8 1-380)": "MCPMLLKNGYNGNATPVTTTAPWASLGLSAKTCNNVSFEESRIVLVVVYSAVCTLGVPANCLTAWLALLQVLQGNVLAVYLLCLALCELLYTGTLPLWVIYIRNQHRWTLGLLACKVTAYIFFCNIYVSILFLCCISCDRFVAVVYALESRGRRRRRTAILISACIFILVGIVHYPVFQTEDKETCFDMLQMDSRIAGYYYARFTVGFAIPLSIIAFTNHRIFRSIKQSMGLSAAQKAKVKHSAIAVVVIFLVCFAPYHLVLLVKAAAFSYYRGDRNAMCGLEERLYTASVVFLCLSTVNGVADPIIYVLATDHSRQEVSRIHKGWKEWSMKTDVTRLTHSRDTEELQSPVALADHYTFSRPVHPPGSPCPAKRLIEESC", "experiment": "Calcium in HEK cells transfected with G2A (FURA-2)", "assay_type": "cell-based", "set-up": "expressed in transfected cells", "conditions": "HEK cells overexpressing G2A, 9-HODE 1 μM"}, "[4]": {"tested_on": "TRPV1", "experiment": "Whole-cell voltage clamp of DRG neurons, capsaicin-induced inward current", "assay_type": "cell-based, mice", "conditions": "DRG neurons pre-treated with 9-HODE (200 nM, 3 min), capsaicin 1 μM", "procedure": "All recordings were carried out at room temperature within 48 hour of plating DRG neurons. Whole-cell voltage clamp recordings were made with an Axopatch 200A amplifier (Molecular Devices) and patch pipettes with resistances of 2-3 MΩ. Pipette solution was 5 mM NaCl, 140 mM KCl, 0.5 mM CaCl2, 2 mM MgCl2, 5 mM EGTA, 10 mM HEPES, and 3 mM Na2ATP, pH 7.2, adjusted with NaOH. The external solution was 140 mM NaCl, 5 mM KCl, 2 mM CaCl2, 2 mM MgCl2, 10 mM HEPES, and 10 mM D-glucose, pH 7.4, adjusted with NaOH (Sigma). Command protocols were generated and data was digitized with a Digidata 1440A A/D interface with pCLAMP10 software. We used gravity perfusion system connected with perfusion pencil (AutoMate Scientific) to externally apply 9-HODE or capsaicin to the cells."}, "[5]": {"target": "T2, G2A receptor (GPR132)", "conditions": "heterologous expression system; cited from earlier work"}, "[6]": {"tested_on": "DRG neurons", "experiment": "Neuronal CGRP release from DRG neurons", "assay_type": "cell-based, mice", "conditions": "9-HODE 1 μM with capsaicin 400 nM, 10 min", "procedure": "For the determination of neuronal calcitonin gene-related peptide (CGRP) release, dorsal root ganglia (DRGs) neurons were isolated from mice as previously described (Brenneis et al., 2011 a). Briefly, DRG cultures were stimulated for 10 m in with 1 μM (±) 9-HODE (Cayman) alone or in combination with 400 nM capsaicin (Sigma). Cultures supplemented with capsaicin alone served as control. CGRP concentrations in supernatants were analysed utilizing the rat CGRP Enzyme ImmunoAssay Kit (SPI-Bio, Montigny, France) according to the manufacturer's instructions. Absorption was measured with the help of the Spectra Max 250 (Molecular Devices, lsmaning, Germany)"}, "[7]": {"target": "T3, TRPA1 (Mus musculus, UniProt Q8BLA8)", "T3 construct": "endogenous in cells; host or cells: primary murine dorsal root ganglion (DRG) neurons", "T3 sequence (Q8BLA8 whole entry)": "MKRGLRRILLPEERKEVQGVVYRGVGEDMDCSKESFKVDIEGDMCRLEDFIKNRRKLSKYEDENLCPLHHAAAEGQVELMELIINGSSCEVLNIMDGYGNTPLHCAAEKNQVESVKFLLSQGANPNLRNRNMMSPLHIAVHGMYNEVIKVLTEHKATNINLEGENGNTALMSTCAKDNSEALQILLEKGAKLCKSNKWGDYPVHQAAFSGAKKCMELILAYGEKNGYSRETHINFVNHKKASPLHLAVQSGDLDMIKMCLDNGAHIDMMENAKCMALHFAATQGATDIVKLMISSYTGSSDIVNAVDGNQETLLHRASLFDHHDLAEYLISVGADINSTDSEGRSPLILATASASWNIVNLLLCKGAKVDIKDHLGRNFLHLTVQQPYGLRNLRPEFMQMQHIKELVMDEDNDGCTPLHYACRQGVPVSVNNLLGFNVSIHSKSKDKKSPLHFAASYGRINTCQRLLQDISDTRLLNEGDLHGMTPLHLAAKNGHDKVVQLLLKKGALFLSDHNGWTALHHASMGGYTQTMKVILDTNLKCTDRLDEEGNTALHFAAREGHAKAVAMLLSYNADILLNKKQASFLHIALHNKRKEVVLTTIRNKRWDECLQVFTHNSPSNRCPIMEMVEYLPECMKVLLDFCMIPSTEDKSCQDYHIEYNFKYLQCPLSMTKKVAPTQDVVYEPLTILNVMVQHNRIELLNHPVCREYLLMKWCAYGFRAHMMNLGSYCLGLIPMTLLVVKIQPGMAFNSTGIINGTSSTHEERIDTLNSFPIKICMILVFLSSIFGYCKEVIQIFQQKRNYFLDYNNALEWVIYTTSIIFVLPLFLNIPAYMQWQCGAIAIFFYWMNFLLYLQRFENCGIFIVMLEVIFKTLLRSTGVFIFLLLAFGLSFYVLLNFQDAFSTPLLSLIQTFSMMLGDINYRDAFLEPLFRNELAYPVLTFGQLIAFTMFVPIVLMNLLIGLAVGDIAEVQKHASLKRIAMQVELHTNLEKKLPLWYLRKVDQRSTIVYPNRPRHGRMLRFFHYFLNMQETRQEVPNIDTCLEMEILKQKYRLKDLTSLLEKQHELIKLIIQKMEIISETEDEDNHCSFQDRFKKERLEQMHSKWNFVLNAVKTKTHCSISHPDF", "experiment": "Calcium imaging of DRG neurons: TRPA1 sensitization (allyl isothiocyanate)", "assay_type": "cell-based, mice", "conditions": "activated with AITC 50 μM", "procedure": "as §1, §2"}, "[8]": {"target": "T2, G2A receptor (GPR132)", "experiment": "Calcium flux in COS-1 cells cotransfected with aequorin and G2A", "assay_type": "cell-based", "set-up": "expressed in transfected cells", "conditions": "COS-1 cells transfected with GPR132 and aequorin, 10 nM-10 μM", "experimental": "For studies of heterologously expressed G2A receptor, COS-1 cells were seeded in white walls-clear bottom 96-well plates and transfected with a plasmid encoding a calcium-sensitive bioluminescent fusion protein between aequorin and GFP (Baubet et al., 2000) together with plasmid containing cDNA for G2A or control DNA (empty vector, mock) at a concentration of 50 ng/well by using FuGENE 6 reagent (Promega) following manufacturer's instructions. Forty eight hours later, cells were loaded with 5 μM coelenterazine h (Invitrogen) in HBSS containing 1.8 mM CaCl2 and 10 mM glucose for 2 h at 37° C. Measurements were performed by using a luminometric plate reader (Flexstation 3). The area under each calcium transient was calculated by using SoftMaxPro software and expressed as area under the curve (AUC)."}}, "note": "“Also recorded” adds a separate entry of the source."}
{"compound": "CCCCC/C=C\\C=C\\C(O)CCCCCCCC(=O)O", "note": "(stereo not shown) [9-HODE, 9-hydroxy-10E,12Z-octadecadienoic acid]", "values": [{"measurement": "sensitizing effects for TRPM8", "setting": "[1]", "result": "no sensitizing effects"}, {"measurement": "9-HODE-induced TRPV1 sensitization in G2A-deficient DRG neurons", "setting": "[2]; DRG cultures of G2A-deficient mice, 9-HODE 200 nM 120 s", "result": "not in G2A-deficient mice; also recorded: absent"}, {"measurement": "sensitization of TRPV1 (Δratio of first and second capsaicin stimulus)", "setting": "[2]; DRG neurons, lipid incubated 2 minutes before second capsaicin stimulus, 0 to 1000 nM", "result": "dose-dependently sensitizes the TRPV1 channel; also recorded: concentration-dependently induced a sensitization of TRPV1"}, {"measurement": "calcium flux of second vs first capsaicin stimulus (Δratio)", "setting": "[2]; wildtype DRG neurons, lipid 200 nM 120 s, capsaicin 200 nM 30 s", "result": "increased calcium flux compared to the first stimulus"}, {"measurement": "intracellular calcium concentrations", "setting": "[3]", "result": "caused calcium-release; also recorded: increased intracellular calcium concentrations"}, {"measurement": "capsaicin-induced inward current", "setting": "[4]", "result": "significantly increased"}, {"measurement": "activation of the G2A receptor", "setting": "[5]", "result": "can activate the G2A receptor"}, {"measurement": "capsaicin-dependent CGRP release", "setting": "[6]", "result": "increased the capsaicin-dependent CGRP release significantly"}, {"measurement": "sensitizing effects for TRPA1", "setting": "[7]", "result": "no sensitizing effects"}, {"measurement": "calcium release (bioluminescence of aequorin)", "setting": "[8]", "result": "caused calcium release in a concentration-dependent manner"}]}
